Test results reported in PMC9295122, “Sialic Acid Derivatives Inhibit SiaT Transporters and Delay Bacterial Growth” (ACS Chemical Biology, 2022).

Molecular target: SiaT from S. aureus (Staphylococcus aureus, UniProt A0A0H2XJ46)
Assay: [3H]Neu5Ac uptake in proteoliposomes, SaSiaT
Conditions: for type of inhibition: SaSiaT, Lineweaver–Burk plot
Method: To gain further insights into the molecular mechanisms, we investigated the direct effects of compounds 3e and 3f on the transport activity in proteoliposomes reconstituted with PmSiaT and SaSiaT. A kinetic analysis was performed by measuring the concentration-dependent uptake of [^3H]Neu5Ac in the presence of two different concentrations of the inhibitors 3f (Figure 5a,c) or 3e (Figure 5b,d).
Figure 5 Kinetic analysis of the inhibition of recombinant SiaT from P. mirabilis (A,B) and S. aureus (C,D) reconstituted in proteoliposomes and [^3H]Neu5Ac efflux in proteoliposomes (E,F). (a–d) Data were plotted according to Lineweaver–Burk as a reciprocal transport rate vs reciprocal Neu5Ac concentration. The transport rate was measured, in 5 min, by adding [^3H] Neu5Ac at the indicated concentrations to proteoliposomes containing 20 mM K^+-gluconate in the presence of valinomycin as described in the Supporting Information. [(A,B) P. mirabilis SiaT]; (A) compound 3f 0.25 μM (●) or 0.75 μM (□) was added in comparison to samples without inhibitor (○). (B) Compound 3e 12 μM (●) or 40 μM (□) was added in comparison to samples without an inhibitor (○). [(C,D) S. aureus SiaT]. (C) Compound 3f 80 μM (●) or 200 μM (□) was added in comparison to samples without an inhibitor (○). (D) Compound 3e 5 μM (●) or 12 μM (□) was added in comparison to samples without an inhibitor (○). Results are mean ± s.d. from four independent experiments (n = 4). […] Data are calculated as the percent of residual activity with respect to the control sample (efflux time zero). The results are the means ± s.d. of three independent experiments.
The purified SiaT from P. mirabilis and S. aureus was reconstituted by using the detergent removal procedure with the batchwise method previously pointed out.[16],[21] In brief, 2.5 μg or 5 μg of P. mirabilis and S. aureus SiaT, respectively, were mixed with 120 μL 10% C12E8, 100 μL of 10% egg yolk phospholipids (w/v, in the form of sonicated liposomes as previously described),[43] […]
For uptake experiments, 600 μL of proteoliposomes were loaded onto a Sephadex G-75 column (0.7 cm diameter × 15 cm height), pre-equilibrated with 20 mM Hepes Tris pH 7.0 with 40 mM sucrose to balance the internal osmolarity. […] For kinetic measurement, the initial transport rate was measured by stopping the reaction after 5 min, that is, within the initial linear range of [^3H]-Neu5Ac uptake into the proteoliposomes previously described. […] In both uptake and efflux experiments, the transport assay was terminated by loading each proteoliposome sample (100 μL) on a Sephadex G-75 column (0.6 cm diameter × 8 cm height) to remove the external radioactivity. Proteoliposomes were eluted with 1 mL of 50 mM NaCl and collected in a 4 mL of scintillation mixture, vortexed and counted.

Sequence of SiaT from S. aureus (A0A0H2XJ46 entry or part of it): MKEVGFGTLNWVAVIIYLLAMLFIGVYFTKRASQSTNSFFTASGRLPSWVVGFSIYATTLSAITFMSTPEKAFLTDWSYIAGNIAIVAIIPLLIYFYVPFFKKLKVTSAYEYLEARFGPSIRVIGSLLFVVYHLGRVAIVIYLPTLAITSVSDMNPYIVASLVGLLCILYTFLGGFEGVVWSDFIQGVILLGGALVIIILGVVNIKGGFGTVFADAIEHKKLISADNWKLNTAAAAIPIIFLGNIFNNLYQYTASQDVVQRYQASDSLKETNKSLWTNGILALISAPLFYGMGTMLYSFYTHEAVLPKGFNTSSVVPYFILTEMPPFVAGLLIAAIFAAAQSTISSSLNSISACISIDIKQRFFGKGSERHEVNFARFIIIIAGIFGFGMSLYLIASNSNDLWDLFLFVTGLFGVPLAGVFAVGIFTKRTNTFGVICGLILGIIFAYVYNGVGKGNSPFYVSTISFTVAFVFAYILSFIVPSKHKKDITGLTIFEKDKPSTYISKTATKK

Row | Compound | Ki [µM] | type of inhibition
1 | CC(=O)NC1C(OCc2cc(Br)cc(Br)c2)CC(O)(C(=O)O)OC1C(O)C(O)CO (stereo not shown) [Compound 3f] | 53.6 ± 11.1 | competitive inhibitors
2 | CC(=O)NC1C(OCc2cc(F)cc(F)c2)CC(O)(C(=O)O)OC1C(O)C(O)CO (stereo not shown) [Compound 3e] | 2.8 ± 0.5 | competitive inhibitors
